We go through one molecule from publication PMC12680861, “Comparative analysis of LJ-4378 and tirzepatide in mouse models of obesity and weight regain” (Archives of Pharmacal Research, 2025).

For one data set, the target named is T1, CYP1A2 (Homo sapiens, UniProt P05177).
T1 sequence (P05177 1-516): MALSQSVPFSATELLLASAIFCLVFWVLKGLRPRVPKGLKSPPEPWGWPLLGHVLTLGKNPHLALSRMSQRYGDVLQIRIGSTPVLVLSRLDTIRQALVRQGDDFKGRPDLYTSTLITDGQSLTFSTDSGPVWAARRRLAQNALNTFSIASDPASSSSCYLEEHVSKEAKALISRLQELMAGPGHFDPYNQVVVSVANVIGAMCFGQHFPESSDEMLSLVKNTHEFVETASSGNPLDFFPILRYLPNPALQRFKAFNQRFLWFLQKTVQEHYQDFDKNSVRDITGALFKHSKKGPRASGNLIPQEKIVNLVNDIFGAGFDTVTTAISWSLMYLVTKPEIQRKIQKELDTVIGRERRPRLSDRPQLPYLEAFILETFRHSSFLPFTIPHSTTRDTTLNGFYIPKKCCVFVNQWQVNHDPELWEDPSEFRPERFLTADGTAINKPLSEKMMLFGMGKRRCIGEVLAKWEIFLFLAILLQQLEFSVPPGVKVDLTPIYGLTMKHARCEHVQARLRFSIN
The data set can be described thus: CYP enzyme inhibition in pooled human liver microsomes (phenacetin substrate). Conditions: microsomes, 10 µM. As to the method:
(§1) Cytochrome 450 (CYP) enzyme inhibition was evaluated using pooled human liver microsomes (Corning, #452117). […] Substrates and corresponding metabolites for each CYP isoform were as follows: phenacetin and acetaminophen for CYP1A2 (Sigma Aldrich, #77440 and A7085, respectively), diclofenac and 4'-hydroxydiclofenac for CYP2C9 (Sigma Aldrich, D6899; TRC, H825225), S-mephenytoin and 4'-hydroxymephenytoin for CYP2C19 (Sigma Aldrich, UC175; Santacruz, sc210197), dextromethorphan and dextrorphan for CYP2D6 (Sigma Aldrich, #81091 and UC205), and midazolam and 1'-hydroxymidazolam for CYP3A4 (KFDA; Sigma Aldrich, UC430).
(§2) Samples were preincubated at 37 °C for 5 min, and the reaction was initiated by the addition of the NADPH regeneration system, followed by incubation at 37 °C for 15 min. The reaction was terminated by adding acetonitrile containing the internal standard, and centrifuged at 15,000 rpm for 5 min at 4 °C. The supernatant was analyzed by LC–MS/MS using a Nexera XR system (Shimadzu, Japan) coupled with a TSQ Vantage mass spectrometer (Thermo, USA). […] Metabolites were quantified in multiple reaction monitoring (MRM) mode with Xcalibur software (version 4.4).
(§3) All experiments were performed in duplicate with variability ≤ 15%. The percent activity of each CYP enzyme was calculated based on metabolite formation relative to the no-inhibitor control.
Background: Microsomes from liver hold many membrane-bound enzymes, among them those of drug oxidation.

The next data set concerns the target CYP2C9 (Homo sapiens, UniProt P11712). As to the kind of experiment: CYP enzyme inhibition in pooled human liver microsomes (diclofenac substrate). The conditions noted are these: microsomes, 10 µM. As for the experimental part: as §1, §2, §3
In the next data set the target is CYP2C19 (Homo sapiens, UniProt P33261). As to the kind of experiment: CYP enzyme inhibition in pooled human liver microsomes (S-mephenytoin substrate). The conditions noted are these: microsomes, 10 µM. As to the method:
as §1, §2, §3

Another data set deals with CYP3A4 (Homo sapiens, UniProt P08684). The data set can be described thus: CYP enzyme inhibition in pooled human liver microsomes (midazolam substrate). Conditions: at 10 µM, 15 min. As to the method: as §1, §2, §3
Sequence of CYP3A4 (P08684 whole entry): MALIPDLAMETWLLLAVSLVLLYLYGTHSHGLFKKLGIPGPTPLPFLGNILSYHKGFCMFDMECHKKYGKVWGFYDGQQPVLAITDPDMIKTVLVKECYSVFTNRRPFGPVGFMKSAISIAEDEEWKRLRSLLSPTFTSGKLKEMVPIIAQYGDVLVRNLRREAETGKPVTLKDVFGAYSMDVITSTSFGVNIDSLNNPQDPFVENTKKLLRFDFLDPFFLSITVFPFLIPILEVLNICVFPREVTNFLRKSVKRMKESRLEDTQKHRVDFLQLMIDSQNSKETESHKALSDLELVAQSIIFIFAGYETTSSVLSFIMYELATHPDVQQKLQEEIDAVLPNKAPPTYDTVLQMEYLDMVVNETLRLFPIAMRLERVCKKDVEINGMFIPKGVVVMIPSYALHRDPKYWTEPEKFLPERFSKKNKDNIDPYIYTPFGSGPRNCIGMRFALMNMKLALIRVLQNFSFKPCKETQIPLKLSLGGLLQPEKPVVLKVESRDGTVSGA
A further data set concerns WR mice. As to the kind of experiment: WR model: indirect calorimetry and adipose immunoblot after treatment cessation. The data set is classed as in vivo, C57BL/6 J male mice. The source says:
To assess post-treatment weight rebound (WR), the mice previously treated with vehicle, LJ-4378, or TZP were maintained on HFD for an additional 4 weeks following treatment cessation. Treatment protocols for the WR groups were identical to those of the HFD groups. In total, nine experimental groups were established: NCD + CTL, NCD + LJ, NCD + TZP; HFD + CTL, HFD + LJ, HFD + TZP; and WR + CTL, WR + LJ, WR + TZP. The volume of oxygen consumed (VO2), carbon dioxide produced (VCO2), respiratory exchange ratio (RER), energy expenditure, activity, and food intake were measured with PhenoMaster (TSE Systems, Bad Homburg, Germany). Indirect calorimetry was performed under controlled conditions, with a stable ambient temperature of 24 °C and a 12 h light/12-h dark cycle. Mice fed HFD were administered vehicle, LJ-4378, or TZP for 14 days, and the last 2 days of treatment were conducted during indirect calorimetry analysis. The WR model was examined by indirect calorimetry after 2 and 4 weeks of the weight regaining phase.
For protein extraction, we utilized PRO-RERP Protein Extraction Solution (17081, iNtRON Biotechnology, Gyeonggi-do, Korea), supplemented with […] Protease Inhibitor (S8820, Sigma, St. Louis, MO, USA) and PhosSTOP phosphatase inhibitor (#4906837001, Roche, Basel, Switzerland). Protein concentrations were determined using the Pierce BCA protein assay Kit (#23227, Thermo Fisher, Waltham, Massachusetts, USA) by measuring absorbance at 562 nm with a MultiSkan GO spectrophotometer (Thermo Fisher). The quantified proteins were loaded and separated in 12% SDS-PAGE gels and transferred to polyvinylidene difluoride (PVDF) membranes (Bio-Rad, Hercules, CA, USA). Membranes were blocked in 5% bovine serum albumin or skim milk in Tris-buffered saline with 0.1% Tween 20 (TBST) for 1 h, followed by overnight incubation with primary antibodies. The next day, membranes were washed 3 times with TBST and incubated for 1 h with horseradish peroxidase (HRP)-conjugated secondary antibody: Goat anti-rabbit (1:3000, #31460, Thermo Fisher) and Goat anti-Mouse IgG (1:3000, 115–035-174, Jackson ImmunoResearch). After secondary antibody incubation, membranes were washed 3 times with TBST and detected with the Fusion Solo chemiluminescence imaging system (Vilber Lourmat, France). EvolutionCapt (version 17.03) software and the ImageJ (National Institutes of Health, Bethesda, MD, USA) program were used for analysis and to quantify the protein level.

Data set [1] is described as follows: Preliminary study, I.V. bolus administration to mice. It is filed as in vivo.
Where [2] appears, read: two weeks after treatment cessation.

Sequence of CYP2C9 (P11712 whole entry): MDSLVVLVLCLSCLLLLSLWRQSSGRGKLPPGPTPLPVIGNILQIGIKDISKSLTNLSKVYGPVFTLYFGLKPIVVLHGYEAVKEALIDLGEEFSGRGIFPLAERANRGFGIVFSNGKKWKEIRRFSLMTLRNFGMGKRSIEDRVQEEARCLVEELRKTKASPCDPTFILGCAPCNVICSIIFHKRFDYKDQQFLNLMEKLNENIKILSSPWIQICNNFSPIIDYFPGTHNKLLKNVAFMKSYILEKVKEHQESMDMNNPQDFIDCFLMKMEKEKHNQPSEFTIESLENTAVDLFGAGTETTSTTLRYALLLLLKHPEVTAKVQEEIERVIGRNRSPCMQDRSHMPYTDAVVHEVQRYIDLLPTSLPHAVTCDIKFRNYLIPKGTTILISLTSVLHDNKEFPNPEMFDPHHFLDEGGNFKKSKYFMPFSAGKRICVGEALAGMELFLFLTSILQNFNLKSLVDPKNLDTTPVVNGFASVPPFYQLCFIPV
Sequence of CYP2C19 (P33261 whole entry): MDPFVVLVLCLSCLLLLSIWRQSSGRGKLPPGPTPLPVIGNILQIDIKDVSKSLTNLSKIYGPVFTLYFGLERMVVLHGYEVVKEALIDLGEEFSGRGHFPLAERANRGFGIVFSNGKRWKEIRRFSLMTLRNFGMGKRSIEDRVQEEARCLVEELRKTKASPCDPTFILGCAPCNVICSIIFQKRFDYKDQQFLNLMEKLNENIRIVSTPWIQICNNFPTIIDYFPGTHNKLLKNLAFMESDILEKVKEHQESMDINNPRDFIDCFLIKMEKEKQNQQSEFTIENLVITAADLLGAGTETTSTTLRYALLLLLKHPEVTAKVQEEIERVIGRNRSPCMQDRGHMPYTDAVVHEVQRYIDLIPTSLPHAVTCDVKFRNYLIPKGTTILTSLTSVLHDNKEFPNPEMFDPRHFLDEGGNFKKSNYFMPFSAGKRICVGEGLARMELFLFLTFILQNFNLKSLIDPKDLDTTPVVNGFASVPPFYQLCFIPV

As to `CCCCC#Cc1nc(N)c2ncn([C@@H]3SC[C@@H](O)[C@H]3O)c2n1` [LJ-4378], the “% of control activity CYP1A2” value at CYP1A2 is reported as 82.2%. Moreover, the “% of control activity CYP2C9” value at CYP2C9 amounted to 95.8%. On CYP2C19, the “% of control activity CYP2C19” value stood at 85.3%. The “% of control activity CYP3A4” value on CYP3A4 is given as 96.9%. In the data set with WR mice (2 weeks after treatment cessation), the “P-HSL and mitochondrial proteins in BAT and iWAT, versus WR controls and TZP” value was “higher levels”. Besides, in the data set with WR mice (2 weeks post-treatment, WR), the “energy expenditure, ANCOVA adjusted for body mass, versus vehicle or TZP” value is “higher energy expenditure”. Moreover, the “elevated energy expenditure after 4 weeks of WR” value with WR mice (4 weeks post-treatment) is “no longer evident”. Further, in the data set with WR mice (setting [2]), the “VO2, VCO2 and energy expenditure compared with TZP-treated group” value is “significantly higher”; the “VO2, VCO2 and energy expenditure compared with WR controls” value is given as “elevated”. Besides, in data set [1], the terminal phase half-life entry is reported as “approximately 0.29 h”.
